Experimental data reported in patent US20170360013A1, “ANIMAL MODEL FOR DRY EYE AND METHODS OF USE OF SUCH ANIMALS” (REGENERON PHARMACEUTICALS, INC., priority 2014, published 2017).

Experiments:
C57BL/6 mice [1] = test: Flow cytometry of extraorbital lacrimal glands (CD45+ immune cell infiltration); format: in vivo, mouse; settings: after 4 weeks of treatment; relative to controls
Description: (§1) Dry eye model induction: 27 adult, male C57BL/6 mice were randomized to naïve (untreated), sham (receiving surgery equivalent to surgery for implantation of pump, but without actual implantation of pump and without scopolamine or BAC treatment), benzalkonium chloride (BAC), scopolamine (Scop) or BAC plus Scop groups.
(§2) Implantation of scopolamine pump. For Scop group, mice were subcutaneously implanted with an osmotic pump filled with Scop (2 mg/20 g body weight/day) lasting for 4 weeks. Mice were anesthetized with ketamine (120 mg/kg, IP) and xylazine (5 mg/kg, IP). Using aseptic microsurgical technique and an operating microscope, a mini-osmotic pump was placed beneath the back skin, then the skin was sutured, and erythromycin ophthalmic ointment was applied to the wound to prevent infection.
(§3) Benzalkonium chloride treatment. For BAC treatment, 1 μl of 0.1-0.2% BAC was topically administrated on the right eye ocular surface, twice daily, 2 days per week, for four weeks.
Quantification of corneal angiogenesis, lymphangiogenesis and lacrimal gland infiltration. On day 28 after induction of dry eye, under deep ketamine (120 mg/kg, IP) and xylazine (5 mg/kg, IP) anesthesia, eyeballs were collected in 4% paraformaldehyde (PFA) for corneal angiogenesis and lymphangiogenesis studies. […]
Flow cytometry. […] Data was analyzed by FlowJo (Tree Star, Ashland, Oreg.).

C57BL/6 mice [2] = test: Tear production measurement (phenol red thread) in dry eye model induction; format: in vivo, mouse; settings: over four weeks of administration; Scop 2 mg/20 g body weight/day by s.c. osmotic pump; BAC 1 μl of 0.1-0.2% topical, twice daily, 2 days per week; relative to controls or BAC alone; p<0.001
Description: as §1, §2, §3
Tear production measurement and corneal fluorescein staining score. Tear production and corneal fluorescein staining were performed once per week, on day 7, 14, 21, and 28. […] Five minutes after application, corneal fluorescein staining was scored under a microscope using the National Eye Institute (NEI) scoring standards.

Compound | percent of CD45+ cells in extraorbital lacrimal glands (C57BL/6 mice [1]) | tear production (C57BL/6 mice [2])
CN1[C@@H]2C[C@@H](OC(=O)[C@H](CO)c3ccccc3)C[C@H]1[C@@H]1O[C@@H]12 [Scop, scopolamine] | increased | significantly decreases
benzalkonium chloride [BAC] | increased | 
